Laboratory results published in patent US4196205A, “3-Acetoxymethyl-7-(iminoacetamido)-cephalosporanic acid derivatives” (priority 1976, dated 1980).
≈ marks a conversion by molar mass, not a printed value. Read-outs that look alike come from different tables or passages of the source.

Legend:
[1] = test system: Bacillus subtilis ATCC 6 633; experiment: MIC, dilution in liquid medium; assay type: cell-based; conditions: for MIC: Bacillus subtilis
Protocol: (§1) The method used was a dilution of a liquid medium where a series of tubes received the same quantity of a sterile nutritive media and increasing doses of the test compounds were placed therein. Then each tube was seeded with a bacterial strain and was incubated for 24 to 48 hours at 37° C. in an oven. The increasing inhibition was determined by transillumination to determine the minimum inhibiting concentration (MIC in […]) and the results are reported in the following Tables.

[2] = test system: Escherichia Coli Resistant Gentamicine, Tobramycine R 55 123 D; experiment: MIC, dilution in liquid medium; assay type: cell-based; conditions: for MIC: Escherichia coli
Protocol: as §1

[3] = test system: Staphylococcus aureus exp. n° 54 146; experiment: MIC, dilution in liquid medium; assay type: cell-based; conditions: for MIC: Staphylococcus aureus
Protocol: as §1

[4] = test system: Streptococcus pyogenes A 561; experiment: MIC, dilution in liquid medium; assay type: cell-based; conditions: for MIC: Streptococcus pyogenes, read-out: M.I.C.
Protocol: as §1

[5] = test system: Staphylococcus aureus ATCC 5 638 Pen-Sensible = UC 1061; experiment: MIC, dilution in liquid medium; assay type: cell-based
Protocol: as §1

[6] = test system: Klebsiella pneumoniae Exp. 52 145; experiment: MIC, dilution in liquid medium; assay type: cell-based; conditions: for MIC: Klebsiella pneumoniae
Protocol: as §1

[7] = test system: Staphylococcus aureus UC 1 128 Pen-Resistant; experiment: MIC, dilution in liquid medium; assay type: cell-based; conditions: for MIC: Staphylococcus aureus, read-out: M.I.C.
Protocol: as §1

Enterobacter cloacae 681 = experiment: MIC, dilution in liquid medium; assay type: cell-based
Protocol: as §1

[8] = test system: Escherichia Coli Resistant Tetracycline ATCC 11 303 = UC 1261; experiment: MIC, dilution in liquid medium; assay type: cell-based; conditions: for MIC: Escherichia coli
Protocol: as §1

[9] = test system: Escherichia Coli Sensible Tetracycline ATCC 9 637 = 1020; experiment: MIC, dilution in liquid medium; assay type: cell-based; conditions: for MIC: Escherichia coli
Protocol: as §1

[10] = test system: Escherichia Coli Exp. TO26 B6; experiment: MIC, dilution in liquid medium; assay type: cell-based; conditions: for MIC: Escherichia coli
Protocol: as §1

[11] = test system: Proteus mirabilis (indol-) A 235; experiment: MIC, dilution in liquid medium; assay type: cell-based; conditions: for MIC: Proteus mirabilis
Protocol: as §1

[12] = test system: Salmonella typhimurium 420; experiment: MIC, dilution in liquid medium; assay type: cell-based; conditions: for MIC: Salmonella enterica, TYPHIMURIUM
Protocol: as §1

[13] = test system: Klebsiella pneumoniae 2 536 Resistant Gentamicine; experiment: MIC, dilution in liquid medium; assay type: cell-based; conditions: for MIC: Klebsiella pneumoniae
Protocol: as §1

Providencia Du 48 = experiment: MIC, dilution in liquid medium; assay type: cell-based
Protocol: as §1

[14] = test system: Pseudomonas 3 935 Exp. SG; experiment: MIC, dilution in liquid medium; assay type: cell-based
Protocol: as §1

[15] = test system: Streptococcus faecalis 5 432; experiment: MIC, dilution in liquid medium; assay type: cell-based
Protocol: as §1

[16] = test system: Streptococcus faecalis 99 F 74; experiment: MIC, dilution in liquid medium; assay type: cell-based
Protocol: as §1

[17] = test system: Proteus vulgaris (indol+) A 232; experiment: MIC, dilution in liquid medium; assay type: cell-based; conditions: Proteus vulgaris, read-out: M.I.C.
Protocol: as §1

Acute toxicity in mice = assay type: in vivo, female mice of Swiss CD1 Specific Pathogen Free Strain; conditions: for Total Mortality: 4 days
Protocol: The acute toxicity of the product of Example 7 was determined on groups of 8 to 10 female mice of Swiss CD1 Specific Pathogen Free Strain (stock CH.River-France), with an average weight of 19 to 21 g, for each dose of the compound.
The animals had injection in the caudal vein in a variable volume at a rate of 1 ml/mn of the product of Example 7 dissolved at a concentration of 100 mg/ml in sterile apyrogen distilled water.

[18] = test system: Salmonella typhimurium 5210; experiment: Experimental infection with Salmonella typhimurium in mice; assay type: in vivo
Protocol: Groups of 10 mice with an average weight of 20.5 g were intraperitoneally injected with 0.5 ml of a 24 hour old culture in oxoid bouillon of Salmonella typhimurium 5210 diluted 1/75 with distilled water. The product of Example 7 was administered subcutaneously one hour and 4, 8, 24 and 32 hours after the infection and the results, determined as before, are reported in the following Table.

CC(=O)OCC1=C(C(=O)O)N2C(=O)[C@@H](NC(=O)/C(=N/O)c3csc(N)n3)[C@H]2SC1 [3-acetoxymethyl-7-[2-(2amino-4-thiazolyl)-2-hydroxyiminoacetamido]-ceph-3-eme-4-carboxylic acid]
MIC ([1]; ATCC6, 24 h, 24 H): 2 µg/mL (≈ 4.53 µM) | MIC ([1]; ATCC6, 48 h, 48 H): 5 µg/mL (≈ 11.3 µM) | MIC ([2]; 24 h): 5 µg/mL (≈ 11.3 µM) | MIC ([2]; 48 h, RG R55 123D, read-out: M.I.C.): 10 µg/mL (≈ 22.7 µM) | MIC ([3]; 24 h): 5 µg/mL (≈ 11.3 µM) | MIC ([3]; 48 h, read-out: M.I.C.): 10 µg/mL (≈ 22.7 µM) | MIC ([4]; A561, 24 h, 24 H): 0.5 µg/mL (≈ 1.13 µM) | MIC ([4]; A561, 48 h, 48 H): 0.5 µg/mL (≈ 1.13 µM) | MIC ([5]; 24 h, UC 1061 Pen-Sensible): 5 µg/mL (≈ 11.3 µM) | MIC ([5]; 48 h, UC 1061 Pen-Sensible): 5 µg/mL (≈ 11.3 µM) | MIC ([6]; EXP.52145, 24 h, 24 H, read-out: M.I.C.): 0.6 µg/mL (≈ 1.36 µM) | MIC ([6]; EXP.52145, 48 h, 48 H): 0.6 µg/mL (≈ 1.36 µM) | MIC ([7]; UC1, 24 h): 10 µg/mL (≈ 22.7 µM) | MIC ([7]; UC1, 48 h): 10 µg/mL (≈ 22.7 µM) | MIC (Enterobacter cloacae 681; Enterobacter cloacae, 681, 24 h): 40 µg/mL (≈ 90.6 µM) | MIC (Enterobacter cloacae 681; Enterobacter cloacae, 681, 48 h): 40 µg/mL (≈ 90.6 µM) | MIC ([8]; 24 h): 1 µg/mL (≈ 2.27 µM) | MIC ([8]; 48 h): 1 µg/mL (≈ 2.27 µM) | MIC ([9]; ATCC 9 / UC1020, 24 h, 24 H, ST UC 1020): 3 µg/mL (≈ 6.8 µM) | MIC ([9]; ATCC 9 / UC1020, 48 h, 48 H, ST UC 1020): 3 µg/mL (≈ 6.8 µM) | MIC ([10]; 24 h): 2 µg/mL (≈ 4.53 µM) | MIC ([10]; 48 h): 2 µg/mL (≈ 4.53 µM) | MIC ([11]; 24 h): 2 µg/mL (≈ 4.53 µM) | MIC ([11]; 48 h): 2 µg/mL (≈ 4.53 µM) | MIC ([12]; 24 h): 2 µg/mL (≈ 4.53 µM) | MIC ([12]; 48 h): 2 µg/mL (≈ 4.53 µM) | MIC ([13]; 24 h): 20 µg/mL (≈ 45.3 µM) | MIC ([13]; 48 h): 40 µg/mL (≈ 90.6 µM)

CO/N=C(\C(=O)N[C@@H]1C(=O)N2C(C(=O)O)=C(COC(C)=O)CS[C@H]12)c1csc(N)n1 [Example 7, sodium 3-acetoxymethyl-7-[2-(2-amino-4-thiazolyl)-2-methoxyiminoacetamido]-ceph-3-eme-4-carboxylate]
M.I.C. (Providencia Du 48; 24 H): 1 µg/mL | M.I.C. (Providencia Du 48; 48 H): 2 µg/mL | M.I.C. ([1]; 24 H): 1 µg/mL | M.I.C. ([1]; 48 H): 2 µg/mL | M.I.C. ([2]; 24 H): 0,1 μg/ml | M.I.C. ([2]; 48 H): 0,1 μg/ml | M.I.C. ([3]; 48 H): 2 µg/mL | MIC ([3]; 24 h): 2 µg/mL | M.I.C. ([4]; 24 H): 0,01 μg/ml | M.I.C. ([4]; 48 H): 0,01 μg/ml | MIC ([5]; 48 h): 2 µg/mL | M.I.C. ([6]; 24 H): ≤ 0,02 μg/ml | M.I.C. ([6]; 48 H): ≤ 0.02 µg/mL | M.I.C. ([7]; 24 H): 2 µg/mL | M.I.C. ([7]; 48 H): 3 µg/mL | M.I.C. ([14]; 24 H): 10 µg/mL | M.I.C. ([14]; 48 H): 20 µg/mL | M.I.C. ([15]; 24 H): 1 µg/mL | M.I.C. ([15]; 48 H): 3 µg/mL | M.I.C. ([16]; 24 H): 3 µg/mL | MIC ([16]; Enterococcus faecalis, 99F74, 48 h, read-out: M.I.C.): 10 µg/mL | M.I.C. ([8]; 24 H): ≤ 0,02 μg/ml | M.I.C. ([8]; 48 H): ≤ 0,02 μg/ml | M.I.C. ([9]; 24 H): 0,1 μg/ml | MIC ([9]; ATCC9, 48 h, 48 H, read-out: M.I.C.): 0.1 µg/mL | M.I.C. ([10]; 24 H): 0,05 μg/ml | M.I.C. ([10]; 48 H): 0,05 μg/ml | M.I.C. ([11]; 24 H): ≤ 0,02 μg/ml | M.I.C. ([11]; 48 H): ≤ 0,02 μg/ml | M.I.C. ([12]; 24 H): 0,1 μg/ml | M.I.C. ([12]; 48 H): 20 µg/mL | MIC ([17]; 24 h): 0.2 µg/mL | MIC ([17]; 48 h): 0.6 µg/mL | M.I.C. ([13]; 24 H): 0,2 μg/ml | M.I.C. ([13]; 48 H): 0,2 μg/ml | lethal dose (Acute toxicity in mice; caudal vein, mice): above 2000 mg/kg | Total Mortality (Acute toxicity in mice; dose 500 mg, caudal vein): 0/10 | Total Mortality (Acute toxicity in mice; dose 1000 mg, caudal vein): 0/10 | Total Mortality (Acute toxicity in mice; dose 2000 mg, caudal vein): 0/8 | Symptomatology (Acute toxicity in mice; following the injections and during the observation period): No symptoms of intoxication were noted | MORTALITY AFTER 6J ([18]; 0,1 mg subcutaneously): 3 | MORTALITY AFTER 7J ([18]; 0,1 mg subcutaneously): 3 | MORTALITY AFTER 8J ([18]; 0,1 mg subcutaneously): 1 | Mice alive on the 10th day ([18]; 0,1 mg subcutaneously): 3/10 | MORTALITY AFTER 5J ([18]; 0,5 mg subcutaneously): 1 | MORTALITY AFTER 6J ([18]; 0,5 mg subcutaneously): 1 | MORTALITY AFTER 7J ([18]; 0,5 mg subcutaneously): 1 | Mice alive on the 10th day ([18]; 0,5 mg subcutaneously): 7/10 | MORTALITY AFTER 7J ([18]; 0,25 mg subcutaneously): 2 | MORTALITY AFTER 8J ([18]; 0,25 mg subcutaneously): 1 | MORTALITY AFTER 9J ([18]; 0,25 mg subcutaneously): 2 | Mice alive on the 10th day ([18]; 0,25 mg subcutaneously): 5/10 | MORTALITY AFTER 8J ([18]; 1 mg subcutaneously): 1 | Mice alive on the 10th day ([18]; 1 mg subcutaneously): 9/10 | Mice alive on the 10th day ([18]; 2 mg subcutaneously): 10/10
